This is an account of results in patent US5834431A, “Des-Arg^9 -BK antagonists” (Cortech, Inc., priority 1995, dated 1998).

Square brackets hold non-standard residues; d marks the D form. Ends that are not written are not given here. Peptide text beside a SMILES is read from it. Oic = O=C(O)[C@@H]1C[C@@H]2CCCC[C@@H]2N1; dIgl = N[C@@H](C(=O)O)C1Cc2ccccc2C1; Gly(cPent) = N[C@H](C(=O)O)C1CCCC1; Igl = N[C@H](C(=O)O)C1Cc2ccccc2C1; Hyp = O=C(O)[C@@H]1C[C@@H](O)CN1; dTic = O=C(O)[C@H]1Cc2ccccc2CN1

Series [1] addresses T1, B2 receptor (Cavia porcellus, UniProt O70526).
T1 construct: from tissue
T1 sequence (O70526 1-372): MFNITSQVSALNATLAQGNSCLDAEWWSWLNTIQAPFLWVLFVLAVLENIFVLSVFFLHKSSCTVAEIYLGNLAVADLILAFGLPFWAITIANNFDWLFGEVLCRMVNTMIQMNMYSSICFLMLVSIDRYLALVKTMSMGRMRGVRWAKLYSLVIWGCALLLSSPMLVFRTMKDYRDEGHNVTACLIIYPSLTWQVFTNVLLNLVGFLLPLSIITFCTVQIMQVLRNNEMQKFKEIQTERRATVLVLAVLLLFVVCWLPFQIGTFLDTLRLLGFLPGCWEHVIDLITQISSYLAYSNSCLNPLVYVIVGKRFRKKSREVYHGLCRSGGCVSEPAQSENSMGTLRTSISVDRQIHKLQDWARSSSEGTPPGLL
Kind of series: GPI binding B2. As to conditions: i.a. = inactive, read-out: GPI Binding - pIC50 B2 (converted).

Series [2] can be described thus: Stability in rat lung membranes. Format: in vitro ADME. As for the experimental part: Rat or human lung (3 gm) was prepared as a modification of […] et al. (Biochemical Pharmacology 33: 3471 (1984)). Tissues were removed and placed in cold phosphate-saline (3×). Material was minced and homogenized in 20 volumes (w/v) of 0.5 mM tris HCl. 50 mM mannitol, pH 7.0. Calcium chloride was added to the homogenate to give a final concentration of 10 mM. The material was filtered through a guaze pad to remove loose connective tissue. Filtrate was spun in a Beckman centrifuge (3,000×g) for thirty minutes. The resultant supernatant fraction was spun in a Beckman L7-65 ultracentrifuge (43,000×g, 30 min) to spin down membranes. The centrifugation step was repeated on the membrane pellet fraction two additional times. The pellet was reconstituted in 4 ml of the tris mannitol buffer and stored at -70° C. Protein was determined by the method of Bradford. Bradykinin antagonists were prepared at 1 mM concentration in a phosphate-buffered saline solution (phosphate saline, 2.6 mM KH2 PO4, 10.42 mM Na2 HPO4, 0.1454M NaCl, pH. 7.2). Aliquots (10 μl) of the compound were added to 90 μl of the tissue samples in Eppendorf tubes. Samples were incubated various time points at 37° C. At each time point protein was precipitated by addition of acetonitrile, acetonitrile made 0.1M HCl or 10% (v/v) trifluoroacetic acid in water (100 μl). Tubes were spun (14,000 rpm, 10 min) in an Eppendorf Model 5415C microcentrifuge. Samples were filtered and analyzed using reverse-phase HPLC (C18 column 4.6×150 mm) and a 13.5% to 90% acetonitrile gradient in 0.1% TFA. Compound half-life was determined by analysis of raw data using ENZFIT application software (Elsevier).

In a further series the target is T2, B1 receptor (Homo sapiens, UniProt P46663).
T2 construct: Human lung fibroblasts IMR-90 cells were obtained from ATCC and propagated in DMEM media; host or cells: IMR-90 human lung fibroblasts, treated with interleukin 1b three hours before harvest; membranes
T2 sequence (P46663 1-353): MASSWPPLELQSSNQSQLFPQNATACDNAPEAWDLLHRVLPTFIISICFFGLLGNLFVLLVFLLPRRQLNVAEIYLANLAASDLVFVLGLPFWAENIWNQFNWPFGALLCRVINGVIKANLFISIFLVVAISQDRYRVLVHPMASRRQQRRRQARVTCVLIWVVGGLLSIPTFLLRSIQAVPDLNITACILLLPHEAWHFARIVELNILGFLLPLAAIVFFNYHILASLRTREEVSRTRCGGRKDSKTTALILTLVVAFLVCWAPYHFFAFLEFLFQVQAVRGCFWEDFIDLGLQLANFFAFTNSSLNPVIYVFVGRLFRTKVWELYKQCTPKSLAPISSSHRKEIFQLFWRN
Kind of series: Human B1 binding, IL-1b-treated IMR-90 membranes, 3H-des-Arg9-Kallidin. As to conditions: 0.5 nM 3H-des-Arg9-Kallidin, pIC50 = -log of molar IC50. The procedure: (§1) Human lung fibroblasts IMR-90 cells were obtained from ATCC and propagated in DMEM media in […] roller bottles until confluent. Three hours prior to harvesting, the cells were treated with Interleukin lb (200 pg/ml). Human BK2 clones were propagated in F12 media until confluent. Preparation of membranes for binding assays was carried out by scraping cells from roller bottles in ice cold PBS and centrifuging at 1000 ×g, at 4° C. for 15 minutes. The supernatant was discarded and pellet resuspended in Buffer A consisting of 25 mM TES(pH 6.8) with 2 uM 1,10-Phenanthroline, and centrifuged at 27,000 ×g for 15 min. this was then repeated. The final pellet was resuspended in Buffer B (Buffer A with 2 uM Captopril, 140 ug/Ml Bacitracin, 0.1%BSA), and stored in 1 ml aliquots, frozen at -20° C. until needed.
(§2) Binding assays were performed by incubating human clone membranes with 0.3 nM ^3 H-Bradykinin or IMR-90 membranes with 0.5 nM ^3 H-des-Arg^9 -Kallidin in the presence of the peptides in assay buffer (Buffer B with 1 mM Dithiotreitol), at room temperature, for 45 minutes. All test compound dilutions were in triplicate. Assays were harvested by quick filtration in a Tomtec Harvester 96, with ice cold wash buffer consisting of 10 mM Tris/HCl, pH 7.5, 100 mM NaCl, 0.02%BSA, onto Wallec printed glassfiber Filtermat "B", which had been pre-soaked with 0.1% PEI and previously air-dried.

The nature of series [3]: Stability in rat kidney brush border microvilli. It is filed as in vitro ADME. The procedure:
Kidney membranes were prepared as indicated in the literature (Booth et al., Biochemical Journal, 142: 575 (1974)). Rat kidneys were obtained after sacrifice and rinsed in several volumes of a 2 mM tris, 10 mM mannitol buffer, pH 7.1. Cortical material was carefully removed and homogenized in ten volumes of the buffer. The homogenate was spun in a IEC Centra-8 refrigerated centrifuge. (4° C., 200×g). The supernatant was made 10 mM with respect to MgCl2. The supernatant material was subjected to further centrifugation as indicated: [drawing 2] Pellet resuspended in tris-mannitol buffer. Protein concentration was determined by the method of Bradford (Anal. Biochem., 72:248-254 (1976)). Bradykinin antagonists were prepared at 1 mM concentration in a phosphate-buffered saline solution (phosphate saline, 2.6 mM KH2 PO4, 10.42 mM Na2 HPO4, 0.1454M NaCl, pH. 7.2). Aliquots (10 μl) of the compound were added to 90 μl of the tissue samples in Eppendorf tubes. Samples were incubated various time points at 37° C. At each time point protein was precipitated by addition of acetonitrile, acetonitrile made 0.1M HCl or 10% (v/v) trifluoroacetic acid in water (100 μl). Tubes were spun (14,000 rpm, 10 min) in an Eppendorf Model 5415C microcentrifuge. Samples were filtered and analyzed using reverse-phase HPLC (C18 column 4.6×150 mm) and a 13.5% to 90% acetonitrile gradient in 0.1% TFA. Compound half-life was determined by analysis of raw data using ENZFIT application software (Elsevier).

In series [4] the target is T3, B2 receptor (Homo sapiens, UniProt P30411).
T3 construct: expressed in transfected cells
T3 sequence (P30411 1-391): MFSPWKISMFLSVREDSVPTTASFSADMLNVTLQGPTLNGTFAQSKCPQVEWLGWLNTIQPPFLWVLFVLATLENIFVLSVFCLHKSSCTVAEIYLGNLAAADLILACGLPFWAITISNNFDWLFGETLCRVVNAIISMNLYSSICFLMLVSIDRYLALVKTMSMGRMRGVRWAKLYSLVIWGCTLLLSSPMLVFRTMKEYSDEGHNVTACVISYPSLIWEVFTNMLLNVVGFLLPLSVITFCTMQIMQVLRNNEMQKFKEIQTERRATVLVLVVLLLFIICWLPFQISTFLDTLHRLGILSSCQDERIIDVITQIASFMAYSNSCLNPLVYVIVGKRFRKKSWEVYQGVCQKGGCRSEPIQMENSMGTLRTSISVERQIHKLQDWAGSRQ
Description: Human B2 binding, human BK2 clone membranes, 3H-Bradykinin. The following applies: 0.3 nM 3H-Bradykinin, i.a. = inactive, read-out: Human Binding - pIC50 B2 (converted). The procedure: as §1
as §2, with “air-dried. Filtermats were counted in 9.5 mls Wallec Beta-Plate Scint, in Wallec 1450 MicroBeta Counter.” for “air-dried.”

The target in series [5] is T4, BK1 (hypotensive response to desArg9BK) (Canis lupus familiaris, UniProt Q9BDQ5).
T4 construct: Mongrel dogs of either sex, weight range 10-15 kg were used; from tissue; host or cells: whole anaesthetized mongrel dog (in vivo blood pressure)
T4 sequence (Q9BDQ5 1-350): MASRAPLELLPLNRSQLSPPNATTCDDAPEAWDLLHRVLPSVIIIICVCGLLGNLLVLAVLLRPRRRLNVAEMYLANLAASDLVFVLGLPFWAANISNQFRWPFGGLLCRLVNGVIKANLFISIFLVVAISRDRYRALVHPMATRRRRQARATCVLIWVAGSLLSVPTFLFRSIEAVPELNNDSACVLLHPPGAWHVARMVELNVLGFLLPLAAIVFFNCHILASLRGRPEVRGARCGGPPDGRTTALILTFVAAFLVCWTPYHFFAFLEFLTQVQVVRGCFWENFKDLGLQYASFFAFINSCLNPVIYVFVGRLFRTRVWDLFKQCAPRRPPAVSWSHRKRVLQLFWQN
Description: In vivo inhibition of hypotensive response to desArg9BK in anaesthetized dogs. The following applies: dog. Details: species or system Mongrel dogs. The procedure: Mongrel dogs of either sex, weight range 10-15 kg were used. These were anaesthesized with pentobarbitone, 30 mg/kg i.v. and catheters placed in one femoral artery and both femoral veins for the recording of blood pressure and infusion and injection of compounds. […] After the end of the infusion of the highest dose of the antagonist compound, BK and des-Arg^9 -BK were injected at intervals for up to four hours.

In series [6] the test system is angiogenic response elicited by bradykinin. The following applies: literature, Hu et al. 1993; cited from earlier work.
Series [7] has as its system type I diabetic hyperglycemia. The following applies: literature, Zuccollo et al. 1995; cited from earlier work.

Turning to `N=C(N)NCCC[C@@H](N)C(=O)N[C@@H](CCCNC(=N)N)C(=O)N1CCC[C@H]1C(=O)N1C[C@H](O)C[C@H]1C(=O)NCC(=O)N[C@H](C(=O)N[C@@H](CO)C(=O)N1Cc2ccccc2C[C@@H]1C(=O)N[C@H](C(=O)O)C1CCCC1)C1CCCC1` [B9066, DArg-Arg-Pro-Hyp-Gly-Cpg-Ser-DTic-Cpg] (H-[dR]RP[Hyp]G[Gly(cPent)]S[dTic][Gly(cPent)]-OH), the values for the IC50 at B2 receptor [1], on B1 receptor and on B2 receptor [4] were 2510 nM, 0.501 nM and 1260 nM, respectively. Also, the Half-Life in series [2] and in series [3] was more than 6 h throughout.
Regarding `N=C(N)NCCC[C@@H](N)C(=O)N[C@@H](CCCNC(=N)N)C(=O)N1CCC[C@H]1C(=O)N1C[C@H](O)C[C@H]1C(=O)NCC(=O)N[C@H](C(=O)N[C@@H](CO)C(=O)N[C@@H](C(=O)N1[C@H](C(=O)O)C[C@@H]2CCCC[C@@H]21)C1Cc2ccccc2C1)C1Cc2ccccc2C1` [B9812, DArg-Arg-Pro-Hyp-Gly-Igl-Ser-DIgl-Oic] (H-[dR]RP[Hyp]G[Igl]S[dIgl][Oic]-OH), the Half-Life in series [2] and in series [3] was more than 6 h throughout. In series [5] (ED50 expressed in pmol), the “BK1 ED50” value worked out at 10.7 pmol. Further, in series [5] (return of agonist response after end of infusion), the “Duration of Action (following 20 min of highest dose)” value was “B1 still 100% blocked at 4.6 h”. For the same compound, the “Selectivity (BK, desArg9BK, ACh, NE, Sp, AII)” value in series [5] (which agonist responses are blocked at the stated infusion dose) is “B1 only at 1.0”.
With `CC(C)C[C@H](NC(=O)[C@@H]1CCCN1C(=O)[C@H](CO)NC(=O)[C@H](Cc1ccccc1)NC(=O)CNC(=O)[C@@H]1CCCN1C(=O)[C@@H]1CCCN1C(=O)[C@H](CCCN=C(N)N)NC(=O)[C@@H](N)CCCCN)C(=O)O` [CP-0298, desArg9 Lys0 Leu8 BX, reference compound], the Half-Life in series [2] is reported as 0.085 h; in series [3], 0.020 h. The “BK1 ED50” value in series [5] (infusion, dose of antagonist to inhibit hypotensive response to desArg9BK by 50%) is 0.546 ± .16 µg/kg/min.
As for “RPPGFSPFR [Bradykinin, Arg^1 -Pro^2 -Pro^3 -Gly^4 -Phe^5 -Ser^6 -Pro^7 -Phe^8 -Arg^9, reference compound]”, the Half-Life in series [2] (Rat Lung Membranes, 37° C.) was 0.13 h; in series [3] (Rat kidney Brush Border, 37° C.), 0.13 h.
For the compound [Leu^8, des-Arg^9 ]-bradykinin, the “effect on angiogenic response elicited by bradykinin” value in series [6] is on record as “inhibit the angiogenic response elicited by bradykinin”. The “effect on type I diabetic hyperglycemia” value in series [7] is on record as “cause a reduction in type I diabetic hyperglycemia”.
